Where two headings read alike, the source gives them in different places.
What was measured:
[1] = target: T1, human recombinant adrenergic α2A receptor (Homo sapiens, UniProt P08913); assay: Radioligand binding, adrenergic α2A ([3H]MK-912); settings: for Percentage inhibition of ligand binding, Adrenergic α2A: 0.1 µM
T1 construct: expressed in transfected cells; host or cells: insect Sf9 cells
T1 sequence (P08913 1-465): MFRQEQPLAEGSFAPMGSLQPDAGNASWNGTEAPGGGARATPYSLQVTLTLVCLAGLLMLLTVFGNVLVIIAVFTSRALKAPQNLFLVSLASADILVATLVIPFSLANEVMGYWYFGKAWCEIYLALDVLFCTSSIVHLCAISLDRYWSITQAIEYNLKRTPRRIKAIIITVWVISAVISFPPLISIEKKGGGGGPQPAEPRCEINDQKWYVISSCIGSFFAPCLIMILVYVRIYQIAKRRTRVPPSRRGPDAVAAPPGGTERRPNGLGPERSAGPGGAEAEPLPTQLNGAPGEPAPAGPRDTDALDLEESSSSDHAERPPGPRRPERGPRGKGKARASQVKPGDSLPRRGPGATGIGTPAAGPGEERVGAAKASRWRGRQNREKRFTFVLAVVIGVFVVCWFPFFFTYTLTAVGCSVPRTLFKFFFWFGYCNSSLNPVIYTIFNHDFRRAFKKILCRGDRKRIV
Procedure, shortened: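 In 50 mM Tris-HCl (pH 7.4) containing 12.5 mM MgCl2 and 2 mM EDTA, Sf9-expressed receptor was exposed to test compound plus 1 nM [3H]MK-912 at 25 °C for 60 min. Specific binding, corrected using 10 μM WB-4101, was quantified by filtration and counting and expressed as percent inhibition.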

[2] = target: T2, human recombinant adrenergic α2B receptor (Homo sapiens, UniProt P18089); assay: Radioligand binding, adrenergic α2B ([3H]Rauwolscine); settings: for Percentage inhibition of ligand binding, Adrenergic α2B: 0.03 µM
T2 construct: expressed in transfected cells; host or cells: CHO-K1
T2 sequence (P18089 1-450): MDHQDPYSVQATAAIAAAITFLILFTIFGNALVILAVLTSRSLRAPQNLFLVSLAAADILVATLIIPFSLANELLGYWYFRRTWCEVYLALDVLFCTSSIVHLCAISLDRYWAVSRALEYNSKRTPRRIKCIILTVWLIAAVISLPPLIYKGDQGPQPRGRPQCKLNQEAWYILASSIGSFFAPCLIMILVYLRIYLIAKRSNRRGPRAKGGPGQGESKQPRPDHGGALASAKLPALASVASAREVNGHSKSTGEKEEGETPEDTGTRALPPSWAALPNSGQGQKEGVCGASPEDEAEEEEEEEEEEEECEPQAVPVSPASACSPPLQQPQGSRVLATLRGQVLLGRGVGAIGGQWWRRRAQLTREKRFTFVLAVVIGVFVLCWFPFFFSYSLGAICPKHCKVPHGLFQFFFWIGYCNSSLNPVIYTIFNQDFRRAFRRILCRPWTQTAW
Procedure, shortened: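 Receptor expressed in CHO-K1 cells, assayed in 50 mM Tris-HCl pH 7.4 with 12.5 mM MgCl2, 1 mM EDTA and 0.2% BSA. Compounds were incubated with 2.5 nM [3H]Rauwolscine for 60 min at 25° C; 10 μM Prazosin defined non-specific binding. Filter counting gave percent inhibition of specific binding.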

[3] = target: T3, rat adrenergic α1B receptor (Rattus norvegicus, UniProt P15823); assay: Radioligand binding, adrenergic α1B ([3H]Prazosin); settings: for Percentage inhibition of ligand binding, Adrenergic α1B: 0.1 µM
T3 construct: rat adrenergic α1B receptor obtained from Wistar Rat liver; from tissue; host or cells: Wistar rat liver
T3 sequence (P15823 1-515): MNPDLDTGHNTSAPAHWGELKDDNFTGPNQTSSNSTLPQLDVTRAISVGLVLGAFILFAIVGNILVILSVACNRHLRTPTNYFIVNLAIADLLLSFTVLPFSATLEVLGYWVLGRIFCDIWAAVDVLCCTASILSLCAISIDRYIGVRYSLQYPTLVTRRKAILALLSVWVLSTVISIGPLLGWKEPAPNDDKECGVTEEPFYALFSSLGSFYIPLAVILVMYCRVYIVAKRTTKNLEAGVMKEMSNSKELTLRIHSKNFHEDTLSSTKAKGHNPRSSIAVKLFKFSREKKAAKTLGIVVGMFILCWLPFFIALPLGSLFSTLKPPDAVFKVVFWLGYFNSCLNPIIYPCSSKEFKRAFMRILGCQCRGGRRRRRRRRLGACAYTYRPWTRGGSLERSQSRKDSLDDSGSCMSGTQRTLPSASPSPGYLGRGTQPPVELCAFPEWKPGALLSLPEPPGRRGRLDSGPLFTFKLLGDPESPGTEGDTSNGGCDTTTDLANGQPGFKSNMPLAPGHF
Procedure, shortened: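 Incubation ran 60 min at 25 °C in Tris-HCl buffer (50 mM, pH 7.4, 0.5 mM EDTA) with Wistar rat liver α1B receptor. 10 μM phentolamine set non-specific binding.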

[4] = read-out: Percentage inhibition of ligand binding, Adrenergic α2A (0.1 μM), compound at 0.1 μM, [3H]MK-912, repeat datapoints each shown
[5] = read-out: Percentage inhibition of ligand binding, Adrenergic α2B (0.03 μM), compound at 0.03 μM, [3H]Rauwolscine, repeat datapoints each shown
[6] = read-out: Percentage inhibition of ligand binding, Adrenergic α1B (0.1 μM), compound at 0.1 μM, [3H]Prazosin, repeat datapoints each shown
[7] = 0.1 μM compound, read-out: Percentage inhibition of ligand binding, Adrenergic α2A
[8] = 0.03 μM compound, read-out: Percentage inhibition of ligand binding, Adrenergic α2B
[9] = 0.1 μM compound, read-out: Percentage inhibition of ligand binding, Adrenergic α1B

Row | SMILES | inhibition at 0.1 µM [1, 7] [%] | inhibition at 0.03 µM [2, 8] [%] | inhibition at 0.1 µM [3, 9] [%] | also measured
1 | C/C(=C\n1c2c(c3cc(C)ccc31)C1CCCN1CC2)c1ccc(F)cc1 (stereo not drawn) [194a, 7-(2-(4-fluorophenyl)prop-1-enyl)-10-methyl-2,3,5,6,7,11c-hexahydro-1H-indolizino[7,8-b]indole] |  |  |  | inhibition at 0.1 µM [1, 4]: 98%; inhibition at 0.03 µM [2, 5]: 106%; inhibition at 0.1 µM [3, 6]: 100%
2 | Cc1ccc2c(c1)c1c(n2CCc2ccc(C)nc2)CCN2CCCC12 (stereo not drawn) [197a, 9-methyl-6-[2-(6-methyl-pyridin-3-yl)-ethyl]-2,3,4,5,6,10c-hexahydro-1H-3a, 6-diaza-cyclopenta[c]fluorene] |  |  |  | inhibition at 0.1 µM [1, 4]: 31%; inhibition at 0.03 µM [2, 5]: 81%; inhibition at 0.1 µM [3, 6]: 82%
3 | C/C(=C\n1c2c(c3cc(C)ccc31)CN(C)CC2)c1ccncc1 [II-2] | 49 | 96 | 74 | 
4 | Cc1cc2c3c(n(CC(C)(O)c4cccnc4)c2cn1)CCN1CCCC31 (stereo not drawn) [II-5] | 9 | 4 | 2 | 
5 | Cc1ccc2c(c1)c1c(n2CC(c2cnccn2)N(C)C)CCN2CCCC12 (stereo not drawn) [II-7, dimethyl-[2-(9-methyl-1,2,3,4,5,10c-hexahydro-3a,6-diaza-cyclopenta[c]fluoren-6-yl)-1-pyrazin-2-yl-ethyl]-amine] | 52 | 100 | 95 | 
6 | CCNC(Cn1c2c(c3cc(C)ccc31)CN(C)CC2)c1ccncc1 (stereo not drawn) [II-8, [2-(2,8-dimethyl-1,2,3,4-tetrahydro-pyrido[4,3-b]indol-5-yl)-1-pyridin-4-yl-ethyl]-ethyl-amine] | 9 | 70 | 6 | 
7 | Cc1ccc2c(c1)c1c(n2CC(NC2CCCC2)c2ccncc2)CCN(C)C1 (stereo not drawn) [II-9, cyclopentyl-[2-(2,8-dimethyl-1,2,3,4-tetrahydro-pyrido[4,3-b]indol-5-yl)-1-pyridin-4-yl-ethyl]-amine] | 7 | 78 | 30 | 
8 | Cc1ccc2c(c1)c1c(n2CC(NC(C)C)c2ccncc2)CCN(C)C1 (stereo not drawn) [II-10, [2-(2,8-dimethyl-1,2,3,4-tetrahydro-pyrido[4,3-b]indol-5-yl)-1-pyridin-4-yl-ethyl]-isopropyl-amine] | 10 | 47 | 7 | 
9 | Cc1ccc2c(c1)c1c(n2CC(N)c2ccc(F)cc2)CCN(C)C1 (stereo not drawn) [II-11, 2-(2,8-dimethyl-3,4-dihydro-1H-pyrido[4,3-b]indol-5(2H)-yl)-1-(4-fluorophenyl)ethanamine] |  |  |  | Percentage inhibition of ligand binding, Adrenergic α2A ([1]; 0.1 μM compound): 25%; Percentage inhibition of ligand binding, Adrenergic α2B ([2]; 0.03 μM compound): 70%; Percentage inhibition of ligand binding, Adrenergic α1B ([3]; 0.1 μM compound): 63%
10 | CNC(Cn1c2c(c3cc(C)ccc31)CN(C)CC2)c1ccc(F)cc1 (stereo not drawn) [II-12, 2-(2,8-dimethyl-3,4-dihydro-1H-pyrido[4,3-b]indol-5(2H)-yl)-1-(4-fluorophenyl)-N-methyl ethanamine] |  |  |  | Percentage inhibition of ligand binding, Adrenergic α2A ([1]; 0.1 μM compound): 11%; Percentage inhibition of ligand binding, Adrenergic α2B ([2]; 0.03 μM compound): 65%; Percentage inhibition of ligand binding, Adrenergic α1B ([3]; 0.1 μM compound): 18%
11 | Cc1ccc2c(c1)c1c(n2CC(NC2CCC2)c2ccncc2)CCN(C)C1 (stereo not drawn) [II-13, cyclobutyl-[2-(2,8-dimethyl-1,2,3,4-tetrahydro-pyrido[4,3-b]indol-5-yl)-1-pyridin-4-yl-ethyl]-amine] | 9 | 73 | 9 | 
12 | Cc1ccc2c(c1)c1c(n2CC(C)(OC(=O)C(C)(C)C)c2cccnc2)CCN(C)C1 (stereo not drawn) [II-16a, 2,2-dimethyl-propionic acid 2-(2,8-dimethyl-1,2,3,4-tetrahydro-pyrido[4,3-b]indol-5-yl)-1-methyl-1-pyridin-3-yl-ethyl ester] | 11 | 39 | 20 | 
13 | Cc1ccc2c(n1)c1c(n2CC(C)(O)c2cccnc2)CCN2CCCC12 (stereo not drawn) [II-17] | 4 | 7 | 8 | 
14 | Cc1ccc2c(c1)c1c(n2CC(C)(OC(=O)c2ccncc2)c2cccnc2)CCN(C)C1 (stereo not drawn) [II-19] | 8 | 21 | 8 | 
15 | CN1CCc2c(c3cc(CO)ccc3n2CC(O)c2ccncc2)C1 (stereo not drawn) [II-60, 2-(8-hydroxymethyl-2-methyl-1,2,3,4-tetrahydro-pyrido[4,3-b]indol-5-yl)-1-pyridin-4-yl-ethanol] | 9 | 54 | 11 | 
16 | CC(O)(Cn1c2c(c3cc(Cl)ccc31)CNCC2)c1ccncc1 (stereo not drawn) [II-62, 1-(8-chloro-1,2,3,4-tetrahydro-pyrido[4,3-b]indol-5-yl)-2-pyridin-4-yl-propan-2-ol] | 5 | 37 | 14 | 
17 | C=CCN1CCc2c(c3cc(C)ccc3n2CC(O)c2ccncc2)C1 (stereo not drawn) [II-63, 2-(2-allyl-1,2,3,4-tetrahydro-8-methylpyrido[4,3-b]indol-5-yl)-1-(pyridin-4-yl)ethanol] | 39 | 90 | 55 | 
18 | Cc1ccc2c(c1)c1c(n2CC(O)c2ccncc2)CCN(CCO)C1 (stereo not drawn) [II-64, 2-[2-(2-hydroxy-ethyl)-8-methyl-1,2,3,4-tetrahydro-pyrido[4,3-b]indol-5-yl]-1-pyridin-4-yl-ethanol] | -3 | 54 | 23 | 
19 | Cc1ccc2c(c1)c1c(n2CC(O)c2ccncc2)CCN(CC(=O)O)C1 (stereo not drawn) [II-65, [5-(2-hydroxy-2-pyridin-4-yl-ethyl)-8-methyl-1,3,4,5-tetrahydro-pyrido[4,3-b]indol-2-yl]-acetic acid] | 12 | 25 | 10 | 
20 | CN1C2CCC1c1c(n(CC(O)c3ccncc3)c3ccc(Cl)cc13)C2 (stereo not drawn) [II-66] | 0 | 46 | 27 | 
21 | CN1CCc2c(c3cc(OC(F)(F)F)ccc3n2CC(O)c2ccncc2)C1 (stereo not drawn) [II-67, 2-(2-methyl-8-trifluoromethoxy-1,2,3,4-tetrahydro-pyrido[4,3-b]indol-5-yl)-1-pyridin-4-yl-ethanol] | -11 | 43 | 7 | 
22 | CN1CCc2c(c3cc(C(C)(C)C)ccc3n2CC(O)c2ccncc2)C1 (stereo not drawn) [II-68, 2-(8-tert-butyl-2-methyl-1,2,3,4-tetrahydro-pyrido[4,3-b]indol-5-yl)-1-pyridin-4-yl-ethanol] | 5 | 17 | 12 | 
23 | Cc1ccc2c(c1)c1c(n2CC(O)c2ccncc2)CN2CCC1C2 (stereo not drawn) [II-69] | 11 | 14 | 45 | 

— US8791132B2, “Compounds and methods for treatment of hypertension” (Medivation Technologies, Inc., priority 2011, dated 2014)
